Source: patent US7060698B2, “Benzoxazepinone derivatives” (Hoffmann-La Roche Inc., priority 2003, dated 2006)

These molecules were tested against γ-secretase (Homo sapiens, UniProt P49768) (assay: in vitro assay of γ-secretase activity (HEK293 membrane fraction, recombinant APP substrate, Abeta ELISA)). Conditions: statement in the synthesis example on the separated diastereomers; assay not named.
Assay type: biochemical
Source text: The activity of test compounds can be evaluated in assays which measure the proteolytic cleavage of suitable substrates by γ-secretase activity. These can be cellular assays where e.g., a substrate of the γ-secretase is fused in its cytoplasmic domain to a transcription factor. Cells are transfected with this fusion gene and a reporter gene, e.g., firefly luciferase, which expression is enhanced by the transcription factor. Cleavage of the fused substrate by γ-secretase will lead to expression of the reporter gene which can be monitored in appropriate assays. The γ-secretase activity can also be determined in cell-free in vitro assays where e.g., a cell lysate containing the γ-secretase complex is incubated with a suitable APP-derived substrate which is cleaved to the Abeta peptides. The amount of produced peptides can be determined with specific ELISA assays. Cell lines of neuronal origin secrete Abeta peptides which can be measured with the specific ELISA assay. Treatment with compounds which inhibit γ-secretase leads to a reduction of secreted Abeta thus providing a measure of inhibition. The in vitro assay of γ-secretase activity uses a HEK293 membrane fraction as a source of γ-secretase and a recombinant APP substrate. Latter consist of the C-terminal 100 amino acids of human APP fused to a 6× Histidin tail for purification which is expressed in E. coli in a regulatable expression vector, e.g. pEt15. This recombinant protein corresponds to the truncated APP fragment which results after […] of the extracellular domain and which constitutes the γ-secretase substrate. The assay principle is described in Li Y M et al, PNAS 97(11), 6138–6143 (2000). Hek293 cells are mechanically disrupted and the microsomal fraction is isolated by differential centrifugation. The membranes are solubilized in detergent (0.25% CHAPSO) and incubated with the APP substrate.
For `CCC1Oc2ccc(Cl)cc2C(C(=O)NC2CCCCC2)N(C2CCCC2)C1=O` (stereo not drawn) [Example 9, 7-Chloro-4-cyclopentyl-2-ethyl-3-oxo-2,3,4,5-tetrahydro-benzo[f][1,4]oxazepine-5-carboxylic acid cyclohexylamide], the “inhibitory activity of the separated diastereomers” value (“inhibitory activity” below) was “both inhibitorily active”. For `CCC1Oc2ccc(Cl)cc2C(C(=O)NC(C)(C)C)N(Cc2ccccc2Cl)C1=O` (stereo not drawn) [Example 14, 7-Chloro-4-(2-chloro-benzyl)-2-ethyl-3-oxo-2,3,4,5-tetrahydro-benzo[f][1,4]oxazepine-5-carboxylic acid tert-butylamide], the “inhibitory activity” value was “both inhibitorily active”. With `CCC1Oc2ccc(Cl)cc2C(C(=O)NC2CCCCC2)N(C2CCCCC2)C1=O` (stereo not drawn) [Example 6, 7-Chloro-4-cyclohexyl-2-ethyl-3-oxo-2,3,4,5-tetrahydro-benzo[f][1,4]oxazepine-5-carboxylic acid cyclohexylamide] the “inhibitory activity” value was “both inhibitorily active”. With `CCC1Oc2ccc(Cl)cc2C(C(=O)NC2CCCCC2)N(Cc2ccccc2Cl)C1=O` (stereo not drawn) [Example 7, 7-Chloro-4-(2-chloro-benzyl)-2-ethyl-3-oxo-2,3,4,5-tetrahydro-benzo[f][1,4]oxazepine-5-carboxylic acid cyclohexylamide] the “inhibitory activity” value was “both inhibitorily active”. For `CCC1Oc2ccc(Cl)cc2C(C(=O)NC2CCCCC2)N(C2CCOCC2)C1=O` (stereo not drawn) [Example 10, 7-Chloro-2-ethyl-3-oxo-4-(tetrahydro-pyran-4-yl)-2,3,4,5-tetrahydro-benzo[f][1,4]oxazepine-5-carboxylic acid cyclohexylamide], the “inhibitory activity” value was “both inhibitorily active”. For `CCC1Oc2ccc(Cl)cc2C(C(=O)NC(C)(C)C)N(C2CCCC2)C1=O` (stereo not drawn) [Example 16, 7-Chloro-4-cyclopentyl-2-ethyl-3-oxo-2,3,4,5-tetrahydro-benzo[f][1,4]oxazepine-5-carboxylic acid tert-butylamide], the “inhibitory activity” value was “both inhibitorily active”. With `CCC1Oc2ccc(Cl)cc2C(C(=O)NC2CCCCC2)N(Cc2cccc(C(F)(F)F)c2)C1=O` (stereo not drawn) [Example 11, 7-Chloro-2-ethyl-3-oxo-4-(3-trifluoromethyl-benzyl)-2,3,4,5-tetrahydro-benzo[f][1,4]oxazepine-5-carboxylic acid cyclohexylamide] the “inhibitory activity” value was “both inhibitorially active”. With `CCC1Oc2ccc(Cl)cc2C(C(=O)NC(C)(C)C)N(C2CCCCC2)C1=O` (stereo not drawn) [Example 13, 7-Chloro-4-cyclohexyl-2-ethyl-3-oxo-2,3,4,5-tetrahydro-benzo[f][1,4]oxazepine-5-carboxylic acid tert-butylamide] the “inhibitory activity” value was “both inhibitorily active”. For `CCC1Oc2ccc(Cl)cc2C(C(=O)NC(C)(C)C)N(Cc2c(F)cccc2F)C1=O` (stereo not drawn) [Example 12, 7-Chloro-4-(2,6-difluoro-benzyl)-2-ethyl-3-oxo-2,3,4,5-tetrahydro-benzo[f][1,4]oxazepine-5-carboxylic acid tert-butylamide], the “inhibitory activity” value was “both inhibitorially active”.
